From PubChem BioAssay AID1963830 (Molecular Pharmacology Branch, DTP, NCI, 2024)

Tested on: 922993-354-T-J3-PDC complex spheroid viability
Test: Anticancer human tumor 922993-354-T-J3-PDC patient-derived endometrial carcinoma cell line growth inhibition [POLQ]
Conditions: for IC50: curve of first compound; for viability, T/C: stronger effect = lower value
How it was run: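 Complex spheroid viability model combining PDC tumour cells with endothelial (HUVEC) and MSC stromal cells. Novobiocin, ART-558 or RP6685 were tested singly and in combination with standard and investigational anticancer drugs. Each was titrated in half-log steps from near clinical Cmax, or from 10 microM where Cmax was unknown.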

[1] = second compound 0.0316 µM, first compound 0.0316 µM
[2] = second compound 0.0316 µM, first compound 0.1 µM
[3] = second compound 0.0316 µM, first compound 0.316 µM
[4] = second compound 0.0316 µM, first compound 1 µM
[5] = second compound 0.0316 µM, first compound 3.16 µM
[6] = second compound 0.0316 µM, first compound 10 µM
[7] = second compound 0.1 µM, first compound 0.0316 µM
[8] = second compound 0.1 µM, first compound 0.1 µM
[9] = second compound 0.1 µM, first compound 0.316 µM
[10] = second compound 0.1 µM, first compound 1 µM
[11] = second compound 0.1 µM, first compound 3.16 µM
[12] = second compound 0.1 µM, first compound 10 µM
[13] = second compound 0.316 µM, first compound 0.0316 µM
[14] = second compound 0.316 µM, first compound 0.1 µM
[15] = second compound 0.316 µM, first compound 0.316 µM
[16] = second compound 0.316 µM, first compound 1 µM
[17] = second compound 0.316 µM, first compound 3.16 µM
[18] = second compound 0.316 µM, first compound 10 µM
[19] = second compound 1 µM, first compound 0.0316 µM
[20] = second compound 1 µM, first compound 0.1 µM
[21] = second compound 1 µM, first compound 0.316 µM
[22] = second compound 1 µM, first compound 1 µM
[23] = second compound 1 µM, first compound 3.16 µM
[24] = second compound 1 µM, first compound 10 µM
[25] = second compound 3.16 µM, first compound 0.0316 µM
[26] = second compound 3.16 µM, first compound 0.1 µM
[27] = second compound 3.16 µM, first compound 0.316 µM
[28] = second compound 3.16 µM, first compound 1 µM
[29] = second compound 3.16 µM, first compound 3.16 µM
[30] = second compound 3.16 µM, first compound 10 µM
[31] = second compound 10 µM, first compound 0.0316 µM
[32] = second compound 10 µM, first compound 0.1 µM
[33] = second compound 10 µM, first compound 0.316 µM
[34] = second compound 10 µM, first compound 1 µM
[35] = second compound 10 µM, first compound 3.16 µM
[36] = second compound 10 µM, first compound 10 µM
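Further: spheroids exposed to the agents for one week.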
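Wherever viability, T/C is given: 100% = DMSO vehicle control wells.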

## C=CC(=O)N1CCN(c2nc(=O)n(-c3c(C)ccnc3C(C)C)c3nc(-c4c(O)cccc4F)c(F)cc23)C(C)C1 (stereo unspecified) + Nc1ccc(C#CCN(C(=O)Cc2ncc(C(F)(F)F)cc2C(F)(F)F)c2ccc(F)cc2)nn1
Second compound 0.0316 µM
  IC50: > 10 µM
Second compound 0.1 µM
  IC50: > 10 µM
Second compound 0.316 µM
  IC50: > 10 µM
Second compound 1 µM
  IC50: > 10 µM
Second compound 3.16 µM
  IC50: > 10 µM
Second compound 10 µM
  IC50: > 10 µM
[1]
  viability, T/C: 105%
[2]
  viability, T/C: 103%
[3]
  viability, T/C: 96.5%
[4]
  viability, T/C: 108%
[5]
  viability, T/C: 105%
[6]
  viability, T/C: 104%
[7]
  viability, T/C: 110%
[8]
  viability, T/C: 106%
[9]
  viability, T/C: 104%
[10]
  viability, T/C: 108%
[11]
  viability, T/C: 107%
[12]
  viability, T/C: 104%
[13]
  viability, T/C: 107%
[14]
  viability, T/C: 107%
[15]
  viability, T/C: 103%
[16]
  viability, T/C: 105%
[17]
  viability, T/C: 104%
[18]
  viability, T/C: 99.3%
[19]
  viability, T/C: 107%
[20]
  viability, T/C: 101%
[21]
  viability, T/C: 99.6%
[22]
  viability, T/C: 108%
[23]
  viability, T/C: 101%
[24]
  viability, T/C: 102%
[25]
  viability, T/C: 101%
[26]
  viability, T/C: 105%
[27]
  viability, T/C: 104%
[28]
  viability, T/C: 102%
[29]
  viability, T/C: 103%
[30]
  viability, T/C: 101%
[31]
  viability, T/C: 97.3%
[32]
  viability, T/C: 105%
[33]
  viability, T/C: 105%
[34]
  viability, T/C: 93.6%
[35]
  viability, T/C: 101%
[36]
  viability, T/C: 98.1%

## CC(C)n1c(=O)n(C)c2cnc3cc(F)c(-c4ccc(OCCCN5CCCCC5)nc4)cc3c21 + Nc1ccc(C#CCN(C(=O)Cc2ncc(C(F)(F)F)cc2C(F)(F)F)c2ccc(F)cc2)nn1
Second compound 0.0316 µM
  IC50: > 10 µM
Second compound 0.1 µM
  IC50: > 10 µM
Second compound 0.316 µM
  IC50: > 10 µM
Second compound 1 µM
  IC50: > 10 µM
Second compound 3.16 µM
  IC50: > 10 µM
Second compound 10 µM
  IC50: > 10 µM
[1]
  viability, T/C: 101%
[2]
  viability, T/C: 99%
[3]
  viability, T/C: 99.1%
[4]
  viability, T/C: 95.2%
[5]
  viability, T/C: 93.9%
[6]
  viability, T/C: 86.7%
[7]
  viability, T/C: 107%
[8]
  viability, T/C: 103%
[9]
  viability, T/C: 104%
[10]
  viability, T/C: 95.3%
[11]
  viability, T/C: 86.7%
[12]
  viability, T/C: 84.7%
[13]
  viability, T/C: 106%
[14]
  viability, T/C: 107%
[15]
  viability, T/C: 93.9%
[16]
  viability, T/C: 101%
[17]
  viability, T/C: 93.9%
[18]
  viability, T/C: 80.1%
[19]
  viability, T/C: 103%
[20]
  viability, T/C: 95.9%
[21]
  viability, T/C: 99.6%
[22]
  viability, T/C: 98.9%
[23]
  viability, T/C: 94%
[24]
  viability, T/C: 80.4%
[25]
  viability, T/C: 96.9%
[26]
  viability, T/C: 99.4%
[27]
  viability, T/C: 94.6%
[28]
  viability, T/C: 98.1%
[29]
  viability, T/C: 88.6%
[30]
  viability, T/C: 84.1%
[31]
  viability, T/C: 98.8%
[32]
  viability, T/C: 92.8%
[33]
  viability, T/C: 94.9%
[34]
  viability, T/C: 90.6%
[35]
  viability, T/C: 92.5%
[36]
  viability, T/C: 82.1%

## CC1COCCN1c1cc(C2(O)CC3CCC(C2)O3)c2cnn(-c3ccn[nH]3)c2n1 (stereo unspecified) + Nc1ccc(C#CCN(C(=O)Cc2ncc(C(F)(F)F)cc2C(F)(F)F)c2ccc(F)cc2)nn1
Second compound 0.0316 µM
  IC50: 2.08 µM
Second compound 0.1 µM
  IC50: 2.16 µM
Second compound 0.316 µM
  IC50: 2.27 µM
Second compound 1 µM
  IC50: 2.37 µM
Second compound 3.16 µM
  IC50: 1.31 µM
Second compound 10 µM
  IC50: 0.453 µM
[1]
  viability, T/C: 102%
[2]
  viability, T/C: 105%
[3]
  viability, T/C: 89.1%
[4]
  viability, T/C: 74.9%
[5]
  viability, T/C: 35.3%
[6]
  viability, T/C: 21.3%
[7]
  viability, T/C: 108%
[8]
  viability, T/C: 107%
[9]
  viability, T/C: 98.7%
[10]
  viability, T/C: 76.7%
[11]
  viability, T/C: 36.8%
[12]
  viability, T/C: 16.2%
[13]
  viability, T/C: 106%
[14]
  viability, T/C: 102%
[15]
  viability, T/C: 92.9%
[16]
  viability, T/C: 75.8%
[17]
  viability, T/C: 38.9%
[18]
  viability, T/C: 20.7%
[19]
  viability, T/C: 105%
[20]
  viability, T/C: 94.3%
[21]
  viability, T/C: 89.2%
[22]
  viability, T/C: 74.7%
[23]
  viability, T/C: 40.9%
[24]
  viability, T/C: 14.9%
[25]
  viability, T/C: 97.8%
[26]
  viability, T/C: 101%
[27]
  viability, T/C: 80.4%
[28]
  viability, T/C: 59.3%
[29]
  viability, T/C: 26%
[30]
  viability, T/C: 12.2%
[31]
  viability, T/C: 99.4%
[32]
  viability, T/C: 90.9%
[33]
  viability, T/C: 62.4%
[34]
  viability, T/C: 22.9%
[35]
  viability, T/C: 19.4%
[36]
  viability, T/C: 10.9%
